pEC50: −log10 of the molar value. Marks after values point to notes of the source that are not given here. Where a SMILES comes first, the peptide text is derived from it. Bridges are numbered along the chain shown (N, C = ends). Where no end group is shown, it is not given here. [ ]: non-standard residue; d: D form. Orn = NCCC[C@H](N)C(=O)O Some results are limits rather than exact numbers.

Series [1] addresses T1, carboxypeptidase A (Bos taurus, UniProt P00730).
T1 construct: purchased Sigma, UK type I (catalogue number not given); host or cells: bovine pancreas
T1 sequence (P00730 111-419): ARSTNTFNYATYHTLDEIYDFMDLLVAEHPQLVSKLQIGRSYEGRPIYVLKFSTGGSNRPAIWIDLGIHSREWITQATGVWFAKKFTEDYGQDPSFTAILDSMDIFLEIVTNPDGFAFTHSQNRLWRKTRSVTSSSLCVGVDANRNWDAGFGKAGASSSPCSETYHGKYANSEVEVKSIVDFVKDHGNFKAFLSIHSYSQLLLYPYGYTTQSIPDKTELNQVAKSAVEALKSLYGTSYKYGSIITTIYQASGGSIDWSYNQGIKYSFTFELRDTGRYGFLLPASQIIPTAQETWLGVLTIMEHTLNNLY
The experiment in a line: Hydrolysis kinetics in carboxypeptidase A solution. Format: in vitro ADME, bovine. The following applies: 50 mM phosphate buffer pH 7.4, 37° C., carboxypeptidase A 1 U/ml. As for the experimental part:
(§1) Carboxypeptidase A (EC 3.4.17.1) type I from bovine pancreas, leucine aminopeptidase (EC 3.4.11.1) type III-CP from porcine kidney, α-chymotrypsin (EC […]) from bovine pancreas, and pepsin A (EC 3.4.23.1) from porcine stomach mucosa […] were obtained from Sigma, UK.
(§2) Gradient HPLC analysis of samples from in vitro kinetic measurements performed as described below was performed using a Hewlett Packard HP 1100 HPLC system consisting of a HP 1100 Binary Pump, a HPI 100 Autosampler, a HPI 100 Column Thermostat and a HP 1100 Variable Wavelength Detector. A Merck LiChroCART column (125×4 mm I.D.) and a LiChroCART precolumn (4×4 mm I.D.) packed with Lichrospher RP-18 (5 .μum particles) was used. The column was kept at 25° C. or 75° C. and the column effluent was measured by UV detection at 215 run. Separation of the peptide conjugates or the native peptides from degradation products and constituents of the reaction solutions was accomplished using gradient elution of the column with mixtures of mobile phase A (0.1 vol % TFA in water) and mobile phase B (0.085 vol % TFA in acetonitrile) at a flow rate of 1 ml/min.
(§3) The degradation of the peptide conjugate and the corresponding native peptide were studied at 37° C. in a 50 mM phosphate buffer solution at pH 7.4 containing leucine arninopeptidase (25 U/ml) or carboxypeptidase A (1 or 25 U/ml). Experiments were initiated by addition of an aliquot (100 μl) of a stock solution (1 mg/ml) of the peptide conjugate or the native peptide to 900 μl preheated enzyme solution giving a final concentration of ˜0.1 mg/ml (10^−5-10^−4M) of the peptide conjugate or the native peptide. The peptide/enzyme solution was kept at 37° C. using a SHT200D block heater from Stuart Scientific. At appropriate time intervals, samples of 100 μl were withdrawn from the peptide/enzyme solution, mixed thoroughly with 20 μl 25% TFA in acetonitrile in order to stop the enzymatic degradation process and analysed by HPLC as described above. Half-lives (t1/2) for the peptide conjugate and the corresponding native peptide in the enzyme solutions were calculated from plots of the natural logarithm to the concentration of the residual peptide (HPLC peak heights) against time using the formula t/2=1/kobs×ln(2), where kobs is the apparent first-order rate constant for the observed degradation.

For series [2], the target named is T2, leucine aminopeptidase (Sus scrofa, UniProt P28839).
T2 construct: purchased Sigma, UK type III-CP (catalogue number not given); host or cells: porcine kidney
T2 sequence (P28839 1-519): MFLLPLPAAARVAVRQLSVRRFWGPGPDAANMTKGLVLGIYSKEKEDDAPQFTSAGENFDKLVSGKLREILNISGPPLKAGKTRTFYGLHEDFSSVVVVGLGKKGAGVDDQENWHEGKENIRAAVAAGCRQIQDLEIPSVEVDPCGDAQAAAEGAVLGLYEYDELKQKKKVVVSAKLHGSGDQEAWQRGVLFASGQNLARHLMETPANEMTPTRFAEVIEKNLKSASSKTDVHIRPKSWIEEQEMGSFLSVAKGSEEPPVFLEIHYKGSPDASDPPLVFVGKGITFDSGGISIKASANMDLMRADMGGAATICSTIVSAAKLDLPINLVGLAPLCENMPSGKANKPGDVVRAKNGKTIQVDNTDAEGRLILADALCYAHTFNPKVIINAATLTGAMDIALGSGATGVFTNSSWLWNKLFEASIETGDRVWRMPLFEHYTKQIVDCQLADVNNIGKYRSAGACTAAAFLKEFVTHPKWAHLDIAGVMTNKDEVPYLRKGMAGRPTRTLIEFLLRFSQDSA
Nature of the series: Hydrolysis kinetics in leucine aminopeptidase solution. Format: in vitro ADME, porcine. The settings on record: 50 mM phosphate buffer pH 7.4, 37° C., leucine aminopeptidase 25 U/ml; for half-life: pig. As for the experimental part:
as §1, §2, §3

Series [3] can be described thus: Hematological responses after p.o. EMP-1 / EMP-1-K6 in mice. Type of series: in vivo. The settings on record: male mice, 956 nmol p.o., 4 days after administration. On the procedure:
To examine the biological efficacy of peroral (p.o.) treatment with EMP-1 (SEQ ID NO: 117) and EMP-1-K6 (SEQ ID NO: 93), the hematological responses of an equimolar p.o. dose (956 nmol) of EMP-1 (2 mg) and EMP-1-K6 (SEQ ID NO: 93) (2.56 mg) were examined in male mice (n=8/group). To examine the time course of the hematological responses, a 10 μl venous blood sample was collected from the retroorbital plexus on days 0, 2, and 4. Body weight (BW) and the plasma concentration of hemoglobin (P-Hgb), the hematocrit value (Hct), the red blood cell count (RBC), and the mean cell hemoglobin concentration (MCHC) were determined before (Day 0), and 2 and 4 days after administration of EMP-1 (SEQ ID NO: 117) or EMP-1- K6 (SEQ ID NO: 93).

The test system of series [4] is vas deferens. The settings on record: read-out: EC50 value; half maximal inhibition of electrically-induced contraction, mouse vas deferens. As for the experimental part:
(§4) In short: vasa deferentia were isolated from male mice weighing 20-30 g (Mellegaard breeding, DK) and suspended through two electrodes in 10 ml baths at resting tension of 1 g. […] The tissues were stimulated electrically (70 V, 1 ms duration; 0.1 Hz) and contractions were recorded isometrically on a chart recorder. After equilibration of the tissue for at least 20 min, drugs were added in the bath and the maximum effects were measured.
Prior to addition of the plasma sample, a standard dose-response curve was generated in each preparation in order to express the inhibitory activity as concentration of each test substance. Thus, the calculated concentration is a reflection of inhibitory activity in the vas deferens bioassay preparation.
Where initial=initial […] contraction force prior to addition of test substance; conc=concentration of test substance; EC50=concentration of test substance that […] produced half maximal inhibition of electrically-induced contraction; background=contraction force during maximal relaxation.

A short description of series [5]: Bioavailability in mice: functional activity in serum after p.o. or i.v. dosing (vas deferens bioassay). The following applies: 30 min. As for the experimental part:
Blood samples were centrifuged immediately (3000 g, 4° C.) and serum was isolated and used for activity determination.
as §4

In general, half-life refers to the time needed for the level to fall by half in the phase considered. A lower half-life goes with rapid decline. `CC(C)C[C@@H]1NC(=O)[C@@H]2CCCN2C(=O)CNC(=O)[C@H](Cc2ccccc2)NC(=O)[C@H](Cc2c[nH]cn2)NC(=O)[C@@H](NC(=O)[C@H](CO)NC(=O)[C@H](Cc2ccc(O)cc2)NC(=O)[C@@H](NC(=O)CNC(=O)CN)[C@@H](C)O)CSSC[C@@H](C(=O)N[C@@H](CCCCN)C(=O)N2CCC[C@H]2C(=O)N[C@@H](CCC(N)=O)C(=O)NCC(=O)NCC(=O)N[C@@H](CCCCN)C(=O)N[C@@H](CCCCN)C(=O)N[C@@H](CCCCN)C(=O)N[C@@H](CCCCN)C(=O)N[C@@H](CCCCN)C(=O)N[C@@H](CCCCN)C(=O)O)NC(=O)[C@H](C(C)C)NC(=O)[C@H](Cc2c[nH]c3ccccc23)NC(=O)[C@H]([C@@H](C)O)NC1=O` [EMP-1-(Lys)6-OH, H-Gly-Gly-Thr-Tyr-Ser-Cys-His-Phe-Gly-Pro-Leu-Thr-Trp -Val-Cys-Lys-Pro-Gln-Gly-Gly-LM-OH] (H-GGTYSCHFGPLTWVCKPQGGKKKKKK-OH; disulfide 6-15): the half-life in series [1] is over 20 h. Further, the half-life in series [2] is over 100 h. For the same molecule, in series [3], the “Change in BW” value was 3.4 ± 0.3 g, the “Change in Hematocrit” value turned out to be 4.5 ± 0.9 %, the “Change in MCHC” value is on record as 0.2 ± 1.5 mM and the “Change in P-hgb” value is on record as “+2.4 ± 0.3 mM”. Besides, in series [3], the “Change in RBC” value is 1.0 ± 0.1* 10^12 cells/1, the “Relative change in BW” value is “(15 ± 2%)”, the “Relative change in Hematocrit” value is “(12.3 ± 2.3%*)” and the “Relative change in MCHC” value is given as “(0 ± 2%)”. Besides, in series [3], the “Relative change in P-hgb” value was “(+15 ± 2%*)” and the “Relative change in RBC” value is listed as “(17 ± 2%*)”.
Turning to `CC(C)C[C@@H]1NC(=O)[C@@H]2CCCN2C(=O)CNC(=O)[C@H](Cc2ccccc2)NC(=O)[C@H](Cc2c[nH]cn2)NC(=O)[C@@H](NC(=O)[C@H](CO)NC(=O)[C@H](Cc2ccc(O)cc2)NC(=O)[C@@H](NC(=O)CNC(=O)CN)[C@@H](C)O)CSSC[C@@H](C(=O)N[C@@H](CCCCN)C(=O)N2CCC[C@H]2C(=O)N[C@@H](CCC(N)=O)C(=O)NCC(=O)NCC(=O)O)NC(=O)[C@H](C(C)C)NC(=O)[C@H](Cc2c[nH]c3ccccc23)NC(=O)[C@H]([C@@H](C)O)NC1=O` [EMP-1-OH, H-GIy-Gly-Thr-Tyr-Ser-Cys-His-Phe-Gly-Pro-Leu-Thr-Trp -Val-Cys-Lys-Pro-Gln-Gly-GIy-OH, reference compound] (H-GGTYSCHFGPLTWVCKPQGG-OH; disulfide 6-15), in series [1], the half-life was over 50 h. In addition, in series [2], the “pseudo first-order rate constant for the degradation” value (“pseudo first-order rate constant” below) stood at 0.0015 min⁻¹ and the half-life was 7.7 h. Moreover, in series [3], the “Change in BW” value is 3.4 ± 0.2 g, the “Change in Hematocrit” value is 0.3 ± 0.8%, the “Change in MCHC” value is reported as 2.9 ± 1.5 mM and the “Change in P-hgb” value is “+1.5 ± 0.5 mM”. For the same molecule, in series [3], the “Change in RBC” value is reported as 0.6 ± 0.2 10^12 cells/1, the “Relative change in BW” value is listed as “(16 ± 1%)”, the “Relative change in Hematocrit” value was “(0.8 ± 1.8%)” and the “Relative change in MCHC” value is reported as “(4 ± 2%)”. In addition, in series [3], the “Relative change in P-hgb” value is “(+8 ± 1%)” and the “Relative change in RBC” value is reported as “(9 ± 3%)”.
For orientation: pEC50 means the negative decadic logarithm of the EC50, by convention in mol/L. Regarding `CC(C)C[C@H](NC(=O)[C@H](Cc1ccccc1)NC(=O)CNC(=O)CNC(=O)[C@@H](N)Cc1ccc(O)cc1)C(=O)N[C@@H](CCCN)C(=O)N[C@@H](CCCN)C(=O)N[C@@H](CCCN)C(=O)N[C@@H](CCCN)C(=O)N[C@@H](CCCN)C(=O)N[C@@H](CCCN)C(=O)O` [Leu-Enkephalin-(Orn)6-OH, H-Tyr-Gly-Gly-Phe-Leu-(Orn)6-OH] (H-YGGFL[Orn][Orn][Orn][Orn][Orn][Orn]-OH), the pEC50 in series [4] is under 4.70. This molecule displayed a half-life in series [1] of over 100 h. In series [2], the “pseudo first-order rate constant” value was found to be 0.0064 min⁻¹ and the half-life came out at 1.8 h.
As for `CC(C)C[C@H](NC(=O)[C@H](Cc1ccccc1)NC(=O)CNC(=O)CNC(=O)[C@@H](N)Cc1ccc(O)cc1)C(=O)O` [Leu-Enkephalin-OH, H-Tyr-Gly-Gly-Phe-Leu-OH, reference compound], the pEC50 in series [4] is 7.19. Also, the “pseudo first-order rate constant” value in series [1] amounted to 0.98 min⁻¹; in series [2], 0.68 min⁻¹. Also, the half-life worked out at 0.0117 h in series [1] (cattle, carboxypeptidase A solution (1 U/ml) in phosphate buffer) and 0.0167 h in series [2]. Besides, the “Functional activity in serum” value in series [5] (50 mg/kg i.v.) and in series [5] (50 mg/kg p.o.) was “no activity was detected” in each case.
Turning to “H-YGGFLKKEEEK-OH [Leu-Enkephalin-(Lys2-Glu3-Lys)-OH, H-Tyr-Gly-Gly-Phe-Leu-Lys-Lys-Glu-Glu-Glu-Lys-OH]”, in series [4], the pEC50 was 6.17.
On to “YGGFLKEKEKE [Leu-Enkephalin-(Lys-Glu)3-OH]”, for which, in series [4], the pEC50 was 6.46.
Take “YGGFLKKKKKKKKKK [Leu-Enkephalin-(Lys)10-OH, H-Tyr-Gly-Gly-Phe-Leu-Lys10-OH]”: in series [4], the pEC50 is 5.60. For the same molecule, in series [1], the half-life is 38.5 h and the “pseudo first-order rate constant” value turned out to be 0.0003 min⁻¹. In series [2], this molecule registered a half-life of over 100 h.

Source of the values: patent US7414107B2, “Pharmacologically active peptide conjugates having a reduced tendency towards enzymatic hydrolysis” (priority 1998, dated 2008).
